In US9453026B2, “ACC inhibitors and uses thereof” (Gilead Apollo, Inc., priority 2011, dated 2016) one finds MIC and IC50 data, which are given here for 16 molecules.

Values after ≈ are worked out from the molar mass of the structure shown. Values joined by “and” are separate entries in the source; they are usually repeats but may differ in a detail not shown here. Equal values may be shown once. Read-outs that look alike come from different tables or passages of the source. Some results are limits rather than exact numbers.

In one assay the test system is C. krusei ATCC 6258. As to the kind of experiment: Anti-Fungal Activity Assay (broth microtiter MIC). The class given is cell-based. As to conditions: 3 replicates, test compounds read at 48 h. The method, then: (§1) Compounds of the present invention were evaluated in an Anti-Fungal Activity Assay. An exemplary procedure for the assay, which measures the susceptibility of various Candida species to anti-fungal compounds, follows. Compounds to be tested (including fluconazole and amphotericin B) were dissolved in DMSO to obtain a solution having a concentration of 1 mg/mL. […] All species were grown from frozen stock by directly plating on to freshly prepared Sabouraud Dextrose agar (BD, Difco) and incubated overnight in ambient air at 35° C. for 24 h. A direct suspension was prepared in RPMI 1640+MOPS (Lonza, Biowhittaker) by taking individual colonies from the overnight cultures using sterile swabs soaked in sterile saline. The concentration of the suspension was determined using pre-determined standard curves. […] The original CLSI guidelines focused on reading Candida MICs after 48 h of incubation. As reading after only 24 h offers a clear advantage of patient care, QC limits are being established for all drugs at 24 h. That being said there are no known interpretive breakpoints for amphotericin B at 24 h and the current fluconazole interpretive breakpoints are based on a 48 h reading. The MIC breakpoints for the Pharmaron test compounds were recorded at 48 h, and for the soraphen the 24 h time-point was added. All MIC determinations were achieved by visually comparing the growth found in the antibiotic challenged wells to that of the growth control.

In assay [1] the test system is C. parapsilosis ATCC 22019. Kind of assay: Anti-Fungal Activity Assay (broth microtiter MIC). As to conditions: 3 replicates, test compounds read at 48 h. Format: cell-based. The procedure:
as §1

The test system of another assay is C. albicans ATCC 90028. Kind of assay: Anti-Fungal Activity Assay (broth microtiter MIC). The class given is cell-based. As to conditions: 3 replicates, test compounds read at 48 h. The method, then:
as §1

For another assay, the target named is ACC1 (Homo sapiens, UniProt Q13085). Kind of assay: In vitro ACC1 inhibition assay (ADP-Glo). Format: biochemical. The note with it: read-out: ACC1. The essentials:
(§2)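 Enzyme (human ACC1 or ACC2) and compound, serially diluted 1:3 over 11 points from a 600 uM DMSO stock, were preincubated 15 min before substrate addition.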
A general note: ADP-Glo turns the ADP formed in a reaction into a luminescent signal.

A further assay addresses ACC2 (Homo sapiens, UniProt O00763). As to the kind of experiment: In vitro ACC2 inhibition assay (ADP-Glo). Format: biochemical. As to conditions: read-out: ACC2. The essentials:
as §2

The mark [2] stands for this setting: Lodderomyces parapsilosis, ATCC22019, 48 h, read-out: MIC.
Setting [3] is: Candida albicans, ATCC90028, 48 h, read-out: MIC.
The mark [4] stands for this setting: Pichia kudriavzevii, ATCC6258, 48 h, read-out: MIC.

ACC2, sequence (O00763 whole entry, species assumed): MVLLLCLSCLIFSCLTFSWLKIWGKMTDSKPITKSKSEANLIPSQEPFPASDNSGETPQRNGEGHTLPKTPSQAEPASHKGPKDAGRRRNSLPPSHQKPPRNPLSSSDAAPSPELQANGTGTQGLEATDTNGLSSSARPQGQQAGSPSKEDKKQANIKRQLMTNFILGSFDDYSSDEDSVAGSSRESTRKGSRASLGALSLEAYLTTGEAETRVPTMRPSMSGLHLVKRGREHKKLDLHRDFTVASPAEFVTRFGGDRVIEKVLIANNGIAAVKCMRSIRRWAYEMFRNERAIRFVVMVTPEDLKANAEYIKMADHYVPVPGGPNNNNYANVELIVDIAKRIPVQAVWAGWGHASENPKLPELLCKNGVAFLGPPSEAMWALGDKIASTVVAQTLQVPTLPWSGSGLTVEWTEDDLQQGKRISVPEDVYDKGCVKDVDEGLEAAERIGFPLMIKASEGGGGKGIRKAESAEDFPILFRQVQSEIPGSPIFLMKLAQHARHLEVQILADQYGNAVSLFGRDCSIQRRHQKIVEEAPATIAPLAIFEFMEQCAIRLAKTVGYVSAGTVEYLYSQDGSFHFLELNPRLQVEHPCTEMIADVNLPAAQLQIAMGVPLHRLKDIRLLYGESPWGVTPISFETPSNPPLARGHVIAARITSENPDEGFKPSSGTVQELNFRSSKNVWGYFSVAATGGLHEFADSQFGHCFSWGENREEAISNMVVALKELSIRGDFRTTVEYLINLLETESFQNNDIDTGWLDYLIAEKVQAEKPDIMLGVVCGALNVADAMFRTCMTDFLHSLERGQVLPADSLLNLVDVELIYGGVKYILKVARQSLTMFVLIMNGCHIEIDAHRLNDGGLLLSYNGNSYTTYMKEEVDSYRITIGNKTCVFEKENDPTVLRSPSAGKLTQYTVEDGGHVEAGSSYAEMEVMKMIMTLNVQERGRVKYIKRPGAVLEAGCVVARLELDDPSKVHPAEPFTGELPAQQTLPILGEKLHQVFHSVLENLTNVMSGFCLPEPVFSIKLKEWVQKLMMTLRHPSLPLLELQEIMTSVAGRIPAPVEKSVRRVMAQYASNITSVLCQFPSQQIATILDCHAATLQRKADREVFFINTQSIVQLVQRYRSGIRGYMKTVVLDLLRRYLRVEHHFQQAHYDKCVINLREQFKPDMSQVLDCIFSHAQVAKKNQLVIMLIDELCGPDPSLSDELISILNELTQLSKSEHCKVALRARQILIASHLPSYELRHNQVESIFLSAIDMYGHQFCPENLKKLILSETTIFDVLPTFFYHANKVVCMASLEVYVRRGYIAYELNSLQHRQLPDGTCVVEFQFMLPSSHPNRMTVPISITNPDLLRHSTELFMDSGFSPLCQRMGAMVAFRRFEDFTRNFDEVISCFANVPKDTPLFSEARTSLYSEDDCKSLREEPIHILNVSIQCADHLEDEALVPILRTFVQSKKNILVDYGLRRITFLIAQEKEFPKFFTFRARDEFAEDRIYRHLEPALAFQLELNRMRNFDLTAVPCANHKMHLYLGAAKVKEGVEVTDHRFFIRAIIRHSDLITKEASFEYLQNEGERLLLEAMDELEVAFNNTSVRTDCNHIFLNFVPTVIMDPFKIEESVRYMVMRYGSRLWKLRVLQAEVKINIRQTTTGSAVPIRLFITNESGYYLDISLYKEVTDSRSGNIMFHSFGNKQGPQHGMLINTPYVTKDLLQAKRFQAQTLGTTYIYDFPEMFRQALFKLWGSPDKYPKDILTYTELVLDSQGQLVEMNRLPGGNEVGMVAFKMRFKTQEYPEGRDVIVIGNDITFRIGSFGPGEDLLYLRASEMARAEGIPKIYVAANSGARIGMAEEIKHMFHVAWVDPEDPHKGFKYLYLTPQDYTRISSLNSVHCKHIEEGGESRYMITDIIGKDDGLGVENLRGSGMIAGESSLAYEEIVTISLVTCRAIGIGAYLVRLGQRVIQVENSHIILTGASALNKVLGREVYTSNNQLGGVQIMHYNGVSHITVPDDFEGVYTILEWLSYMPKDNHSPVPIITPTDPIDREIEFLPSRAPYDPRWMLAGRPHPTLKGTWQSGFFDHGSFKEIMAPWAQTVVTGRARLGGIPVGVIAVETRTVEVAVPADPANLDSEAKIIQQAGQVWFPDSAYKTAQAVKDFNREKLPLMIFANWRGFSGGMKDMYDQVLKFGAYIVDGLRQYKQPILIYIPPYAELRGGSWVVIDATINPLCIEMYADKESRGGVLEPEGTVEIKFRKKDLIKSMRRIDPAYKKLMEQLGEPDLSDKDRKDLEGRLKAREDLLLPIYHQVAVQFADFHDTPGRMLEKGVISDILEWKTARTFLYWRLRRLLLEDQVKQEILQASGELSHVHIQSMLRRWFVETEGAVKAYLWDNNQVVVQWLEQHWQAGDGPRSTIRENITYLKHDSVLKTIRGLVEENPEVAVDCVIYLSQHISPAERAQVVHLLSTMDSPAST

As to `C[C@@H]1[C@H](O)[C@@H](C)/C=C/C=C/C=C/C=C/C=C/C=C/C=C/[C@H](O[C@@H]2O[C@H](C)[C@@H](O)[C@H](N)[C@@H]2O)C[C@@H]2O[C@](O)(C[C@@H](O)C[C@@H](O)[C@H](O)CC[C@@H](O)C[C@@H](O)CC(=O)O[C@H]1C)C[C@H](O)[C@H]2C(=O)O` [Amph. B, amphotericin B, reference compound], the minimum inhibitory concentration (MIC) (usually the least concentration at which growth counts as inhibited) against C. krusei ATCC 6258 is 1 µg/mL (≈ 1.08 µM); in assay [1], 1 µg/mL (≈ 1.08 µM); against C. albicans ATCC 90028 it was 0.5 ug/mL (2×) and 1 ug/mL.

With `OC(Cn1cncn1)(Cn1cncn1)c1ccc(F)cc1F` [Fluc., fluconazole, reference compound], the minimal inhibitory concentration (MIC) with C. krusei ATCC 6258 is 32 ug/mL (2×) and 2 ug/mL; in assay [1], 2 µg/mL and 4 µg/mL; in assay [1] (setting [2]), 2 µg/mL (≈ 6.53 µM); against C. albicans ATCC 90028, 1 µg/mL and 2 µg/mL; with C. albicans ATCC 90028 (setting [3]), 1 µg/mL (≈ 3.27 µM).

With `Cc1c(-c2ncco2)sc2c1c(=O)n(C(C)(C)C(=O)O)c(=O)n2C[C@H](Oc1ccc(-n2ccnc2)cc1)c1ccccc1` [I-160, 2-[1-[(2R)-2-[4-(1H-imidazol-1-yl)phenoxy]-2-phenylethyl]-5-methyl-6-(1,3-oxazol-2-yl)-2,4-dioxo-1H,2H,3H,4H-thieno[2,3-d]pyrimidin-3-yl]-2-methylpropanoic acid], the IC50 at ACC1 and at ACC2 was under 100 nM in each case. The minimal inhibitory concentration (MIC) (against C. krusei ATCC 6258; in the assay on C. krusei ATCC 6258 (setting [4]); in assay [1]; in assay [1] (setting [2]); in the assay with C. albicans ATCC 90028; with C. albicans ATCC 90028 (setting [3])) was over 64 µg/mL throughout.

Consider `Cc1c(-c2ncco2)sc2c1c(=O)n(C(C)(C)C(=O)O)c(=O)n2C[C@H](OC1CCOCC1)c1ccccc1` [I-162, 2-methyl-2-[5-methyl-1-[(2R)-2-(oxan-4-yloxy)-2-phenylethyl]-6-(1,3-oxazol-2-yl)-2,4-dioxo-1H,2H,3H,4H-thieno[2,3-d]pyrimidin-3-yl]propanoic acid], for which the IC50 was under 100 nM at ACC1 and under 1000 nM at ACC2. In addition, the minimum inhibitory concentration (MIC) (against C. krusei ATCC 6258; in the assay with C. krusei ATCC 6258 (setting [4]); in assay [1]; in assay [1] (setting [2]); in the assay on C. albicans ATCC 90028; in the assay on C. albicans ATCC 90028 (setting [3])) was over 64 µg/mL each time.

With `Cc1ccccc1[C@H](Cn1c(=O)n(C(C)(C)C(=O)O)c(=O)c2c(C)c(-c3ncco3)sc21)OC1CCOCC1` [I-282, 2-methyl-2-[5-methyl-1-[(2R)-2-(2-methylphenyl)-2-(oxan-4-yloxy)ethyl]-6-(1,3-oxazol-2-yl)-2,4-dioxo-1H,2H,3H,4H-thieno[2,3-d]pyrimidin-3-yl]propanoic acid], the IC50 at ACC1 and on ACC2 was under 100 nM in each case.

For `COc1ccccc1[C@H](Cn1c(=O)n(CC(=O)O)c(=O)c2c(C)c(-c3ncco3)sc21)OC1CCOCC1` [I-286, 2-[1-[(2R)-2-(2-methoxyphenyl)-2-(oxan-4-yloxy)ethyl]-5-methyl-6-(1,3-oxazol-2-yl)-2,4-dioxo-1H,2H,3H,4H-thieno[2,3-d]pyrimidin-3-yl]acetic acid], the IC50 on ACC1 and at ACC2 was under 100 nM in each case.

As for `COc1ccccc1[C@H](Cn1c(=O)n(CC(C)(C)O)c(=O)c2c(C)c(-c3ncco3)sc21)OC1CCOCC1` [I-287, 3-(2-hydroxy-2-methylpropyl)-1-[(2R)-2-(2-methoxyphenyl)-2-(oxan-4-yloxy)ethyl]-5-methyl-6-(1,3-oxazol-2-yl)-1H,2H,3H,4H-thieno[2,3-d]pyrimidine-2,4-dione], the IC50 at ACC1 and at ACC2 was under 100 nM in each case.

For `COc1ccccc1[C@H](Cn1c(=O)n(CC(N)=O)c(=O)c2c(C)c(-c3ncco3)sc21)OC1CCOCC1` [I-288], the IC50 at ACC1 and on ACC2 was under 100 nM in each case.

On to `COc1ccccc1[C@H](Cn1c(=O)n(Cc2nnc[nH]2)c(=O)c2c(C)c(-c3ncco3)sc21)OC1CCOCC1` [I-289, 1-[(2R)-2-(2-methoxyphenyl)-2-(oxan-4-yloxy)ethyl]-5-methyl-6-(1,3-oxazol-2-yl)-3-(4H-1,2,4-triazol-3-ylmethyl)-1H,2H,3H,4H-thieno[2,3-d]pyrimidine-2,4-dione], for which the IC50 on ACC1 and on ACC2 was under 100 nM each time.

For `COc1ccccc1[C@H](Cn1c(=O)n(C(C)(C)CO)c(=O)c2c(C)c(-c3ncco3)sc21)OC1CCOCC1` [I-290, 3-(1-hydroxy-2-methylpropan-2-yl)-1-[(2R)-2-(2-methoxyphenyl)-2-(oxan-4-yloxy)ethyl]-5-methyl-6-(1,3-oxazol-2-yl)-1H,2H,3H,4H-thieno[2,3-d]pyrimidine-2,4-dione], the IC50 on ACC1 and on ACC2 was under 100 nM throughout.

`Cc1c(-c2ncco2)sc2c1c(=O)n(C(C)(C)C(=O)O)c(=O)n2C[C@H](OC1CCOCC1)c1ccccc1OC(C)C` [I-291, 2-methyl-2-[5-methyl-1-[(2R)-2-(oxan-4-yloxy)-2-[2-(propan-2-yloxy)phenyl]ethyl]-6-(1,3-oxazol-2-yl)-2,4-dioxo-1H,2H,3H,4H-thieno[2,3-d]pyrimidin-3-yl]propanoic acid]: the IC50 at ACC1 and on ACC2 was under 100 nM in each case.

Turning to `Cc1c(-c2ncco2)sc2c1c(=O)n(C(C)(C)C(N)=O)c(=O)n2C[C@H](OC1CCOCC1)c1ccccc1OC(C)C` [I-292, 2-methyl-2-[5-methyl-1-[(2R)-2-(oxan-4-yloxy)-2-[2-(propan-2-yloxy)phenyl]ethyl]-6-(1,3-oxazol-2-yl)-2,4-dioxo-1H,2H,3H,4H-thieno[2,3-d]pyrimidin-3-yl]propanamide], the IC50 on ACC1 and on ACC2 was under 100 nM in each case.

Regarding `Cc1c(-c2ncco2)sc2c1c(=O)n(C(C)(C)C(=O)O)c(=O)n2C[C@H](O[C@H]1CC[C@H](O)CC1)c1ccccc1OC(C)C` [I-294, 2-(1-((R)-2-(((1r,4R)-4-hydroxycyclohexyl)oxy)-2-(2-isopropoxyphenyl)ethyl)-5-methyl-6-(oxazol-2-yl)-2,4-dioxo-1,2-dihydrothieno[2,3-d]pyrimidin-3(4H)-yl)-2-methylpropanoic acid], the IC50 on ACC1 and on ACC2 was under 100 nM each time.

For `Cc1c(-c2ncco2)sc2c1c(=O)n(C(C)(C)C(=O)O)c(=O)n2C[C@H](O[C@H]1CC[C@@H](O)CC1)c1ccccc1OC(C)C` [I-295, 2-(1-((R)-2-(((1s,4S)-4-hydroxycyclohexyl)oxy)-2-(2-isopropoxyphenyl)ethyl)-5-methyl-6-(oxazol-2-yl)-2,4-dioxo-1,2-dihydrothieno[2,3-d]pyrimidin-3(4H)-yl)-2-methylpropanoic], the IC50 at ACC1 and on ACC2 was under 100 nM throughout.

Turning to `Cc1c(-c2ncco2)sc2c1c(=O)n(C(C)(C)C(=O)O)c(=O)n2C[C@H](OC1CCOCC1)c1ccccc1COC(C)C` [I-297, 2-methyl-2-[5-methyl-1-[(2R)-2-(oxan-4-yloxy)-2-[2-[(propan-2-yloxy)methyl]phenyl]ethyl]-6-(1,3-oxazol-2-yl)-2,4-dioxo-1H,2H,3H,4H-thieno[2,3-d]pyrimidin-3-yl]propanoic acid], the IC50 at ACC1 and at ACC2 was under 100 nM in each case.

Take `Cc1c(-c2ncco2)sc2c1c(=O)n(C(C)(C)C(=O)O)c(=O)n2C[C@@H](OC1CCOCC1)c1ccccc1CC#N` [I-303, (S)-2-(1-(2-(2-(cyanomethyl)phenyl)-2-((tetrahydro-2H-pyran-4-yl)oxy)ethyl)-5-methyl-6-(oxazol-2-yl)-2,4-dioxo-1,2-dihydrothieno[2,3-d]pyrimidin-3(4H)-yl)-2-methylpropanoic acid]: the IC50 at ACC1 and on ACC2 was under 100 nM in each case.
